Laboratory results: patent US7348138B2, “Method of inducing cell death using West Nile virus capsid protein” (priority 2000, dated 2008)

Key:
splenic lymphocytes = assay: Lymphoproliferative assay (tritiated thymidine incorporation, stimulation index); assay type: cell-based, mice
Procedure: To evaluate the T cell-mediated immune response against the WNV Cp gene product, an in vivo mouse experiment was set up. The quadriceps muscles of 6- to 8-week-old female BALB/c mice (Harlan Sprague Dawley, Inc., Indianapolis, Ind.) were injected with 100 μg of pWNVh-DJY, pWNVy-DJY, or pcDNA3.1 (without an insert) in PBS and 0.25% bupivacaine-HCl (Sigma, St Louis, Mo.). Two weeks later, the mice received a boost of another 100 μg DNA injections. Thirteen days after the boost injection, the mice were sacrificed, the spleens were harvested, and the lymphocytes were isolated and tested for cellular immune responses.
Harvested splenic lymphocytes were pooled for two mice in each immunized group and suspended to a concentration of 5×10^6 cells/ml. A 100 μl aliquot, containing 5×10^5 cells, was immediately added to each well of a 96-well, flat bottom microtiter plate. Reconstituted peptide, in vitro translated protein, or in vitro translation control were added to the wells, at concentrations of 5 μg/ml and 1 μg/ml (and 0.5 μg/ml for in vitro translated protein and in vitro translation control protein). Concanavalin A (Con A) was used as a positive proliferation control. The assay conditions were set up in triplicate. The cells were incubated at 37° C. in 5% CO2 for three days. One μCi of tritiated thymidine was added to each well and the cells were incubated for 18 hours at 37° C. The plate was harvested and the amount of incorporated tritiated thymidine was measured in a Beta Plate reader (Wallac, Turku, Finland). Stimulation Index was determined from the formula: Stimulation Index (SI)=(experimental count/spontaneous count). Spontaneous count wells included 5% fetal bovine serum which served as an irrelevant protein control.
The values presented for each condition are stimulation indices averaged over triplicate wells. For each immunization group tested, splenocytes were pooled from two mice within the group. “H” indicates splenocytes from the pWNVh-DJY-immunized group. “Y” indicates splenocytes from the pWNVh-DJY-immunized group of mice. “pcDNA3.1” indicates splenocytes from the pcDNA3.1-immunized control group of mice. Peptides 1, 2, and 3 are the WNVC-P1, WNVC-P2, and WNVC-P3 peptides described above. “Peptide 123” indicates a mixture of peptide 1, 2, and 3. “Y protein” indicates the Cp protein in vitro translated from the pWNVy-DJY construct. “Ctrl pro” indicates the in vitro translation control, generated with pcDNA3.1 vector containing no expressible insert, as described above. Detection of Intracellular IFN-γ by Flow Cytometry

[1] = system: SH-SY5Y neuroblastoma cells; assay: TUNEL analysis of cells incubated with peptide; assay type: cell-based; details: 10 μg peptide per 1×10^5 cells, 24 hours
Procedure: Peptide WNVC-P3, as described in Example 3 and FIG. 11 above, was tested for its ability to induce apoptosis in cells in culture. Peptide WNVC-P3 was incubated with SH-SY5Y neuroblastoma cells (ATCC; Manassas, Va.) at a concentration of 10 μg peptide per 1×10^5 cells.

[2] = splenocytes from H (pWNVh-DJY-immunized) mice, protein or peptide 5 μg/ml
[3] = splenocytes from Y group of immunized mice, protein or peptide 5 μg/ml
[4] = splenocytes from pcDNA3.1-immunized control mice, protein or peptide 5 μg/ml
[5] = splenocytes from H (pWNVh-DJY-immunized) mice, protein or peptide 1 μg/ml
[6] = splenocytes from Y group of immunized mice, protein or peptide 1 μg/ml
[7] = splenocytes from pcDNA3.1-immunized control mice, protein or peptide 1 μg/ml

Substance | Stimulation Index (SI) (splenic lymphocytes; [2]) | Stimulation Index (SI) (splenic lymphocytes; [3]) | Stimulation Index (SI) (splenic lymphocytes; [4]) | Stimulation Index (SI) (splenic lymphocytes; [5]) | Stimulation Index (SI) (splenic lymphocytes; [6]) | Stimulation Index (SI) (splenic lymphocytes; [7]) | TUNEL-positive cells [1]
Concanavalin A [Con A, reference compound] | 686.5 | 366.9 | 71.8 | – | – | – | –
KRAMLSLIDGKGPIRFVLA [Peptide 2] | 1.7 | 1.6 | 0.9 | 1.3 | 1.8 | 1.0 | –
SKKPGGPGKSRAVNMLKRGMPR [Peptide 1] | 0.5 | 0.8 | 0.9 | 0.7 | 1.2 | 1.3 | –
TLTSAINRRSSKQKKRGGKTGI [Peptide 3] | 1.5 | 1.1 | 0.8 | 2.0 | 1.4 | 0.7 | TUNEL-positive cells were identified
